Consider five molecules from US10577322B2, “5-methoxytryptophan and its derivatives and uses thereof” (National Health Research Institutes, priority 2015, dated 2020).

The test system of assay [1] is COX-2. Nature of the assay: PMA-induced COX-2 expression in A549 cells (immunoblot). Format: cell-based. The conditions noted are these: for PMA-induced COX-2 protein expression: 30 min pretreatment, PMA 8 h. As for the experimental part: (§1) Cellular protein were resolved by 5% to 20% SDS-PAGE and transferred to nitrocellulose membranes and blotted with specific antibodies as previously described (Lee, G. L., et al.).
After pretreating A549 cells with different concentrations of 5-MTP, 5-MTPE and NACT-5-MTP for 30 min, cells were stimulated with PMA for 8 h. Cell lysates were immunoblotted with antibodies for COX-2 or β-actin.

In assay [2] the test system is COX-2. Nature of the assay: LPS-induced COX-2 protein expression in RAW264.7 cells (immunoblot). In kind it is cell-based, mouse. The conditions noted are these: LPS 8 h. Here is the method: (§2) Mouse RAW264.7 macrophages were from the American Type Culture Collection and cultured in DMEM containing 10% FBS. […] The duration of LPS (100 ng/ml) treatment varied depending on the experiment.
as §1
(§3) After pretreating mouse macrophage RAW264.7 cells with different concentrations of 5-MTP for 30 min, cells were stimulated with LPS for 8 h. Cell lysates were immunoblotted with antibodies for COX-2 or β-actin. In addition, RAW264.7 cells were transfected with COX-2 promoter-luciferase plasmid. After 24 h transfection, the cells were incubated with LPS for 8 h. Luciferase activity was measured.
(In western blotting, separated proteins are transferred to a membrane and probed.)

The next assay concerns IL-6. Nature of the assay: LPS-induced IL-6 level in RAW264.7 culture supernatants (ELISA). The conditions noted are these: RAW264.7 cells; for LPS-induced IL-6 protein expression: LPS 8 h. In kind it is cell-based, mouse. Here is the method:
as §2
Moreover, RAW264.7 cells and IL-6 promoter-luciferase plasmid transfected RAW264.7 cells were pretreated with different concentrations of 5-MTP for 30 min, followed by LPS stimulation for 8 h. IL-6 promoter activity was measured by luciferase assay. IL-6 level in culture supernatants was measured by ELISA.
Furthermore, RAW264.7 cells were treated with different concentrations of 5-MTP or 5-MTPE for 24 h. Cell viability was determined by MTT assay. In another experiment, after pretreating RAW264.7 cells with different concentrations of 5-MTP or 5-MTPE for 30 min, cells were stimulated with LPS for 24 h. IL-6 level in culture supernatants was measured by ELISA.
(§4) Herein, after pretreating RAW264.7 cells with different concentrations of 5-MTP, 5-MTPE, COX-2 inhibitors (NSC398 or SC560) and NF-κB inhibitor JSH-23 for 30 min, cells were stimulated with LPS. In addition, RAW264.7 cells were also transfected with COX-2 promoter-luciferase plasmid. After 24 h transfection, the cells were incubated with LPS for 8 h. Luciferase activity as measured.
In general terms: In an ELISA, binding on a coated surface is turned into a signal by an enzyme label.

For the next assay, the system named is COX-2 promoter. Nature of the assay: COX-2 promoter-luciferase assay in RAW264.7 cells. Format: cell-based, mouse. The conditions noted are these: LPS 8 h. Here is the method:
RAW264.7 macrophages were cotransfected with COX-2 promoter-luciferase, IL-6 promoter-luciferase constructs as previously described (Lee, G. L., et al.) or p5xNF-κB-luciferase (Stratagene) and pcDNA3.1-β-galactosidase plasmids using FuGENE 6 (Roche). After overnight transfection, the cells were incubated with or without LPS in the presence or absence of 5-MTP for 8 h. After treatment, cells were lysed, and luciferase activity was measured using an assay kit (Promega). β-galactosidase activity was used to normalize the data.
as §3, with “measured. The experiments were repeated 3 times with similar results. The results shown in FIGS. 3A-3B confirmed that 5-MTP blocked LPS-induced COX-2 protein expression and promoter activity in a concentration-dependent manner in RAW264.7 cells.” for “measured.”
as §4

The subject of another assay is A549 lung cancer cells. Nature of the assay: Transwell cell migration assay, A549. Format: cell-based. The conditions noted are these: 30 min pretreatment, PMA 4 h or 24 h. As for the experimental part:
(§5) Briefly, cells (10^4/well) were seeded on the upper chamber (6.5-mm insert, 8-μm polycarbonate membrane; Corning Inc.), which was placed in each well of a 24-well plate. The lower chamber was filled with 700 μL DMEM supplemented with 10% FBS. For assessment of in vitro invasion, cells were seeded onto the upper chamber insert coated with Matrigel (BD Biosciences) under the same conditions as the transwell migration assays. At the indicated time, nonmigrated cells that remained at the top surface of the insert were removed with a cotton swab. Cells that migrated to the lower membrane surface and cells that invaded through the matrigel gel to the underside of the membrane were fixed, stained with 0.1% crystal violet for 20 min, and counted under light microscopy. All of the assays were done in triplicate with excellent reproducibility.
(§6) Lung cancer A549 and breast cancers BT474 and T47D cells were pretreated with different concentrations of 5-MTP or 5-MTPE for 30 min, then stimulated with PMA for 4 h or 24 h. Cell migration was measured by the transwell migration assay.

Assay [3] relates to BT474 breast cancer cells. Nature of the assay: Transwell cell migration assay, BT474. The conditions noted are these: 30 min pretreatment, PMA 4 h or 24 h. Format: cell-based. As for the experimental part: as §5, §6
In the next assay the test system is T47D breast cancer cells. Nature of the assay: Transwell cell migration assay, T47D. In kind it is cell-based. The conditions noted are these: 30 min pretreatment, PMA 4 h or 24 h. Here is the method:
as §5, §6

In the case of `COc1ccc2[nH]cc(CCN)c2c1` [5-methoxytryptamine, reference compound], the “PMA-induced COX-2 protein expression” value in the assay on COX-2 [1] is recorded as “neither serotonin nor 5-methoxytryptamine or tryptophan exerted an effect”. Besides, the “LPS-induced COX-2 protein expression” value with COX-2 [2] was “neither serotonin nor 5-methoxytryptamine or tryptophan exerted an effect”. In addition, the “LPS-induced IL-6 protein expression” value with IL-6 was “neither serotonin nor 5-methoxytryptamine or tryptophan exerted an effect”.

For `Cc1ccc(NCCCc2ccccc2)c(N)c1` [JSH-23, reference compound], in the assay with COX-2 promoter, the “LPS-induced COX-2 promoter activity (luciferase)” value was “dose-dependently blocked”. In the assay with IL-6 (30 min pretreatment, LPS 24 h), the “LPS-induced IL-6 level in culture supernatants” value was “dose-dependently blocked”.

On to `NCCc1c[nH]c2ccc(O)cc12` [Serotonin, reference compound], for which the “PMA-induced COX-2 protein expression” value in the assay with COX-2 [1] is recorded as “neither serotonin nor 5-methoxytryptamine or tryptophan exerted an effect”. Further, the “LPS-induced COX-2 protein expression” value in the assay on COX-2 [2] is recorded as “neither serotonin nor 5-methoxytryptamine or tryptophan exerted an effect”. Further, in the assay with IL-6, the “LPS-induced IL-6 protein expression” value is “neither serotonin nor 5-methoxytryptamine or tryptophan exerted an effect”.

For `N[C@@H](Cc1c[nH]c2ccccc12)C(=O)O` [Tryptophan], the “PMA-induced COX-2 protein expression” value in the assay with COX-2 [1] is given as “neither serotonin nor 5-methoxytryptamine or tryptophan exerted an effect”. Also, in the assay with COX-2 [2], the “LPS-induced COX-2 protein expression” value is listed as “neither serotonin nor 5-methoxytryptamine or tryptophan exerted an effect”. For the same molecule, the “LPS-induced IL-6 protein expression” value in the assay with IL-6 is given as “neither serotonin nor 5-methoxytryptamine or tryptophan exerted an effect”.

Turning to N-acetyl-5-MTP [NACT-5MTP], the “PMA-induced COX-2 protein expression” value in the assay on COX-2 [1] is “dose-dependently blocked”. Further, in the assay with COX-2 [1] (PMA), the “COX-2 suppressive activity compared with 5-MTP” value is recorded as “potent than that of 5-MTP”. In addition, in the assay with A549 lung cancer cells, the “PMA-induced A549 cell migration” value was “abrogated”. In addition, the “PMA-induced BT474 cell migration” value in assay [3] is on record as “abrogated”. For the same molecule, the “PMA-induced T47D cell migration” value in the assay with T47D breast cancer cells is on record as “abrogated”.
